Patent US20260297060A1, “COMPOUNDS FOR THE DEGRADATION OF MUTANT BRAF” (C4 THERAPEUTICS, INC., priority 2023, published 2026)
Like-named read-outs stand apart in the source and are kept apart here.

Legend:
A375-NRAS^Q61K cells = assay: CTGlo Cell Viability Assay, A375-NRAS^Q61K (A375.11) cells, 96 hours; assay type: cell-based, human; conditions: A375.11 (A375-NRAS^Q61K) cells; for CTGlo A375.11 96 hours Emax / Emax: lowest % viability achieved
Procedure: Compounds of this invention were tested for their effect on the viability of A375-NRAS^Q61K cells by quantification of ATP using the CellTiter-Glo® 2.0 Cell Viability Assay (Catalog No. G9243, Promega, Madison, WI, USA). This assay produces a luminescent signal in the presence of ATP, which is indicative of metabolically active cells, making the luminescence readout proportional to the number of viable cells.
A375-NRAS^Q61K cells (harboring BRAF homozygous V600E mutation and NRAS homozygous Q61K mutation) were purchased from ATCC (Catalog No. CRL-1619IG-2, Manassas, VA, USA). A375-NRAS^Q61K cells (also referred to here as A375.11) were maintained at 37° C. in an atmosphere of 5% CO2 in Dulbecco's modified Eagle Medium (DMEM) with high glucose (Catalog No. 11965092), supplemented with 10% fetal bovine serum (FBS; Catalog No. 10437036), and 10 mM HEPES (Catalog No. 15630130), all obtained from Thermofisher Scientific (Waltham, MA, USA). Cell culture flasks and 384-well microplates were acquired from VWR (Radnor, PA, USA).
Test compounds were prepared by dissolving neat compounds in DMSO (Catalog No. D8418, Sigma-Aldrich, Inc., St. Louis, MO, USA) to generate 10 mM stock solutions, which were serially diluted (half log) in DMSO to generate an 11-point dose series (1000× final treatment concentration) in a 384-Well Low Dead Volume Microplate (Catalog No. LP-0200, Labcyte, San Jose, CA, USA). Using the Echo 550 Acoustic Liquid Handler (Labcyte), 50 nL of serially diluted compound solutions were dispensed in duplicate to 384-well TC-treated microplates (Catalog No. 3571, Corning, Glendale, CA, USA) and 50 nL of DMSO was dispensed to control wells. A375-NRAS^Q61K cells were resuspended in growth media and added to 384-well plates containing a […] of compounds in duplicate (maximum 10 μM concentration for final treatment) at a density of 250 cells/well in 50 μl. Cells were also plated to a 384-well plate with no compound treatment, to which CellTiter-Glo® reagent was added and luminescence was read right after plating to act as a baseline signal at time of plating (To). Plates treated with compound were then spun briefly, and cells were incubated with compound at 37° C. for 96 hours.
After 96 hours compound treatment, CellTiter-Glo® reagent was added to the cells at 25 μl per well and luminescence was read out on the PHERAstar plate reader (BMG Labtech, Ortenberg, Germany). Cells treated with DMSO only (no test compound treatment) were used as the negative control (N). DMSO treated cells with no CellTiter-Glo® reagent added were used as the background or positive control (P). Viability was determined by subtracting out the average background signal (P) and normalized to the average untreated signal (N) set at 100%.
Data were analyzed with a 4-parameter logistic fit to generate sigmoidal dose-response curves. The half-maximal inhibition of cell growth (GI50) is the concentration at which the fitted curve crosses 50%. The Emax, or maximum effect of each compound, represents the lowest % viability achieved following compound treatment.

BRAF V600E = target: T1, BRAF V600E (Homo sapiens, UniProt P15056+Q96SW2, V600E); assay: BRAF V600E HiBiT Degradation Assay; assay type: cell-based; conditions: for Emax: read-out: HiBiT-Degradation A375.10 BRAF 2 hours Emax
T1 construct: knock-in of the HiBiT tag to the endogenous BRAF V600E locus; host or cells: A375.10 (A375 clonal line, CRISPR HiBiT knock-in at the endogenous BRAF V600E locus)
T1 sequence (P15056 whole entry V600E): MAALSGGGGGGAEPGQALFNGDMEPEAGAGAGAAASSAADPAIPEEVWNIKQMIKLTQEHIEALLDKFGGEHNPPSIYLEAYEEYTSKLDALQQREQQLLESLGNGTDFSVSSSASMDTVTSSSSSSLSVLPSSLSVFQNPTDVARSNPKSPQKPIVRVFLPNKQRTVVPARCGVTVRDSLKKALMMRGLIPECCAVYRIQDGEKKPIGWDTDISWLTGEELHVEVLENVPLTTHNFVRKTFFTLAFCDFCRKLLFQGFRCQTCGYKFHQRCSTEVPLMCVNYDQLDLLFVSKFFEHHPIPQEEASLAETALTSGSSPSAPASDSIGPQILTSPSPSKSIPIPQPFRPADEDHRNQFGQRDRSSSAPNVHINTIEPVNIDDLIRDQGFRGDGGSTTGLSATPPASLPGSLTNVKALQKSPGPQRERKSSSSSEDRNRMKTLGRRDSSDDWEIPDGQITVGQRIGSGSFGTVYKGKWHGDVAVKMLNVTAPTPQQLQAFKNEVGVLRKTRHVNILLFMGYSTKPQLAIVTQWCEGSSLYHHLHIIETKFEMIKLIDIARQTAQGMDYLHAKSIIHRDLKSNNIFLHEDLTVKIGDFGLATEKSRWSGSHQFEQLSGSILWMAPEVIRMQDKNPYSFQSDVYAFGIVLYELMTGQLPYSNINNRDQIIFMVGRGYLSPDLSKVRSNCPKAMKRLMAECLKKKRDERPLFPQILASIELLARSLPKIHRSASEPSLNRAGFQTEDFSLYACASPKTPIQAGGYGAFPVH
T1 sequence (Q96SW2 whole entry): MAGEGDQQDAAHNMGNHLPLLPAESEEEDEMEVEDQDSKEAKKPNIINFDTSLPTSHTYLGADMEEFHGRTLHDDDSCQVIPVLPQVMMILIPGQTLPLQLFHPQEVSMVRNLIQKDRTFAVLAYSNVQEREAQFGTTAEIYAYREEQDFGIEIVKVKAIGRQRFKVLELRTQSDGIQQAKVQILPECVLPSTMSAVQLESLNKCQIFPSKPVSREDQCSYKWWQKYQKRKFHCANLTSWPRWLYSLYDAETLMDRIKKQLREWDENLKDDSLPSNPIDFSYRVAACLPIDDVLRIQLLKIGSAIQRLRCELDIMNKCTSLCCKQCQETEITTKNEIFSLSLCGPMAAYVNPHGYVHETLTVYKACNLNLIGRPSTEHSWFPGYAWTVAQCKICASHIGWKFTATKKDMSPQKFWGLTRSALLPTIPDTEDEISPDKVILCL
T1 sequence (Q16531 whole entry partner): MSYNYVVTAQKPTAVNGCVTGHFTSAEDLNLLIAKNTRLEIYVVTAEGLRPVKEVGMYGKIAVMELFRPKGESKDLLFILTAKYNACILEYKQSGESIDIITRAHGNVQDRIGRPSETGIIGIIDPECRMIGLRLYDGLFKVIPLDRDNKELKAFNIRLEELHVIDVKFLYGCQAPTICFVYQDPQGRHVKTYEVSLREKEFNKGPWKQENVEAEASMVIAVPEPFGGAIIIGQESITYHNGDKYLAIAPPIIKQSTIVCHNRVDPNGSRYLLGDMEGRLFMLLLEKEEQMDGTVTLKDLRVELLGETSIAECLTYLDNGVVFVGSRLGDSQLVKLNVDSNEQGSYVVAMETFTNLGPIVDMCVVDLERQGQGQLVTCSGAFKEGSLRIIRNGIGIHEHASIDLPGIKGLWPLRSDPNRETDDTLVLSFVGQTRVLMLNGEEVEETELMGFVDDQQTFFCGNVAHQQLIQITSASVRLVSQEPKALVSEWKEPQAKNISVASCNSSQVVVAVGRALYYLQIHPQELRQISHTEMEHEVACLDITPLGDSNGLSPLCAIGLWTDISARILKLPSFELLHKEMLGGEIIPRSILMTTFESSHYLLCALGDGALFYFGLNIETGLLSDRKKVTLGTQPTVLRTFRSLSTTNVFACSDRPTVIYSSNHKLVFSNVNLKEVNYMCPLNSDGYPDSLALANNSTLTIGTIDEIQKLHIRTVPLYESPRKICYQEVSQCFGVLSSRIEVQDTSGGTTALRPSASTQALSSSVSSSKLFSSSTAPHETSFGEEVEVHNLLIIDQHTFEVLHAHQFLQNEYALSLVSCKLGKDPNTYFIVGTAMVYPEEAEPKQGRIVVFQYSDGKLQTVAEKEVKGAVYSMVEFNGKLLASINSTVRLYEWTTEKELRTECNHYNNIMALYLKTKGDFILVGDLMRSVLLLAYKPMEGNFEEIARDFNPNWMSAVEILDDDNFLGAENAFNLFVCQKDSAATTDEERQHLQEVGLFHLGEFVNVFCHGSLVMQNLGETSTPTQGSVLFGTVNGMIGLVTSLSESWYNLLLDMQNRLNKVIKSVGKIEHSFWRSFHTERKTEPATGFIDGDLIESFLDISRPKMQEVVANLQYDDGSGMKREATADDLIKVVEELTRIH
Procedure: Compounds of this invention were tested for degradation of mutant BRAF V600E using the HiBiT assay, a luminescence-based assay for quantification of cellular protein levels using the Nano-Glo® HiBiT Lytic Detection System (Catalog No. N3050, Promega, Madison, WI USA). This assay utilizes the HiBiT tag on a protein of interest, which creates a luminescent signal in the presence of a complementing peptide and its substrate, the quantification of which is proportional to the amount of HiBiT-tagged protein in the cell.
The cell line A375, which is homozygous for the BRAF V600E mutation, was purchased from ATCC (Catalog No. CRL-1619, Manassas, VA, USA). A375 cells were engineered to express HiBiT tagged BRAF V600E by CRISPR knock-in of the HiBiT tag to the endogenous BRAF V600E locus, followed by selection of a clonal population containing the appropriate knock-in (referred to here as cell line A375.10). A375.10 cells were maintained at 37° C. in an atmosphere of 5% CO2 in Dulbecco's modified Eagle Medium (DMEM) with high glucose (Catalog No. 11965092), supplemented with 10% fetal bovine serum (FBS; Catalog No. 10437036), and 10 mM HEPES (Catalog No. 15630130), all obtained from Thermofisher Scientific (Waltham, MA, USA). Cell culture flasks and 384-well microplates were acquired from VWR (Radnor, PA, USA).
Test compounds were prepared by dissolving neat compounds in DMSO (Catalog No. D8418, Sigma-Aldrich, Inc., St. Louis, MO, USA) to generate 10 mM stock solutions, which were serially diluted (half log) in DMSO to generate an 11-point dose series (1000× final treatment concentration) in a 384-Well Low Dead Volume Microplate (Catalog No. LP-0200, Labcyte, San Jose, CA, USA). Using the Echo 550 Acoustic Liquid Handler (Labcyte), 30 nL of serially diluted compound solutions were dispensed in duplicate to 384-well TC-treated microplates (Catalog No. 3571, Corning, Glendale, CA, USA) and 30 nL of DMSO was dispensed to control wells. A375.10 cells resuspended in growth media without phenol red (Catalog No. 21063-029, Thermofisher Scientific) were then added to 384-well plates containing the 11-point dose series of compounds in duplicate (maximum 10 μM concentration for final treatment) at a density of 12,000 cells/well in 30 μl. Plates were then spun briefly, and cells were incubated with compound at 37° C. for 2 hours, 6 hours, or 24 hours.
Following the appropriate treatment time, Nano-Glo® HiBiT Lytic Assay reagents were added to the cells per the manufacturer's instructions by adding 30 μl of reagent per well, and the luminescence signal was acquired by plate reader. Cells treated with DMSO only (no test compound treatment) were used as the negative control (N). Media only (no cells added) with Nano-Glo reagent addition was used as the background or positive control (P). The percent response of compound treated samples were calculated by subtracting out the background signal (P) and normalizing to the DMSO control (N) as follows.
% Response=100×(Treated Signal−Average (P))/(Average (N)−Average (P)).
Data were analyzed with a 4-parameter logistic fit to generate sigmoidal dose-response curves. The DC50 is the concentration of compound at which 50% of the cellular BRAF V600E has been degraded. The Emax, or maximum effect of each compound, represents the amount of residual protein remaining in the cell following compound treatment. The IP, or inflection point of the dose-response curve, is the concentration of compound at which 50% of the observed degradation response is achieved.
The experiment was conducted at least once for each compound. If the experiment was conducted multiple times, the data shown in the table is the average of the two or more experiments.

[1] = A375.10 cells, BRAF V600E, 2 hours, inflection point, read-out: HiBiT-Degradation A375.10 BRAF 2 hours IP
[2] = A375.10 cells, BRAF V600E, 2 hours, read-out: HiBiT-Degradation A375.10 BRAF 2 hours DC50
[3] = A375.10 cells, BRAF V600E, 2 hours, residual protein remaining

## CCN(C)S(=O)(=O)Nc1ccc(F)c(Oc2ccc3ncn(C4CCC5(CC4)CCN(C4CCC(c6cc7c(cc6F)c(N6CCC(=O)NC6=O)nn7C)CC4)CC5)c(=O)c3c2)c1C#N (single isomer, unassigned) [Compound 13, 9-[6-[2-cyano-3-[[ethyl(methyl)sulfamoyl]amino]-6-fluoro-phenoxy]-4-oxo-quinazolin-3-yl]-3-[4-[3-(2,4-dioxohexahydropyriimidin-1-yl)-5-fluoro-1-methyl-indazol-6-yl]cyclohexyl]-3-azaspiro[5.5]undecane]
A375-NRAS^Q61K cells
  GI50: > 10 µM
  CTGlo A375.11 96 hours Emax: ** (<90% and >50%)
BRAF V600E; [1]
  DC50: < 1 µM
BRAF V600E; [2]
  DC50: < 1 µM
BRAF V600E; [3]
  HiBiT-Degradation A375.10 BRAF 2 hours Emax: *** (<=50%)

## CCN(C)S(=O)(=O)Nc1ccc(F)c(Oc2ccc3ncn([C@H]4C[C@@H]5CN(C6CCC(c7cc8c(cc7F)c(N7CCC(=O)NC7=O)nn8C)CC6)C[C@@H]5C4)c(=O)c3c2)c1C#N (single isomer, unassigned) [Compound 15]
A375-NRAS^Q61K cells; Homo sapiens, 96 h
  GI50: > 10 µM
  Emax: 50 to 90%
BRAF V600E; [1]
  DC50: < 1 µM
BRAF V600E; [2]
  DC50: < 1 µM
BRAF V600E; [3]
  Emax: 50 to 90%

## CCN(C)S(=O)(=O)Nc1ccc(F)c(Oc2ccc3ncn([C@@H]4C[C@@H]5CN(C6CCC(c7cc8c(cc7F)c(N7CCC(=O)NC7=O)nn8C)CC6)C[C@@H]5C4)c(=O)c3c2)c1C#N (single isomer, unassigned) [Compound 16]
A375-NRAS^Q61K cells
  GI50: 1 to 10 µM
A375-NRAS^Q61K cells; Homo sapiens, 96 h
  Emax: < 50%
BRAF V600E; [1]
  DC50: < 1 µM
BRAF V600E; [2]
  DC50: < 1 µM
BRAF V600E; [3]
  Emax: 50 to 90%

## CCN(C)S(=O)(=O)Nc1ccc(F)c(Oc2ccc3ncn([C@@H]4C[C@@H]5CN(C6CCC(c7cc8c(cc7F)c(N7CCC(=O)NC7=O)nn8C)CC6)C[C@@H]5C4)c(=O)c3c2)c1C#N (single isomer, unassigned) [Compound 17]
A375-NRAS^Q61K cells
  GI50: > 10 µM
  CTGlo A375.11 96 hours Emax: ** (<90% and >50%)
BRAF V600E; [1]
  DC50: < 1 µM
BRAF V600E; [2]
  DC50: < 1 µM
BRAF V600E; [3]
  HiBiT-Degradation A375.10 BRAF 2 hours Emax: ** (<90% and >50%)

## CCN(C)S(=O)(=O)Nc1ccc(F)c(Oc2ccc3ncn([C@@H]4CCC5(CCN(C6CCC(c7ccc(NC8CCC(=O)NC8=O)cc7F)CC6)CC5)C4)c(=O)c3c2)c1C#N (single isomer, unassigned) [Compound 22]
A375-NRAS^Q61K cells; Homo sapiens, 96 h
  GI50: > 10 µM
  Emax: 50 to 90%
BRAF V600E; [1]
  DC50: < 1 µM
BRAF V600E; [2]
  DC50: < 1 µM
BRAF V600E; [3]
  Emax: 50 to 90%

## CCN(C)S(=O)(=O)Nc1ccc(F)c(Oc2ccc3ncn([C@H]4CCC5(CCN(C6CCC(c7ccc(NC8CCC(=O)NC8=O)cc7F)CC6)CC5)C4)c(=O)c3c2)c1C#N (single isomer, unassigned) [Compound 25]
A375-NRAS^Q61K cells
  GI50: < 1 µM
  CTGlo A375.11 96 hours Emax: ** (<90% and >50%)
BRAF V600E; [1]
  DC50: < 1 µM
BRAF V600E; [2]
  DC50: 1 to 10 µM
BRAF V600E; [3]
  HiBiT-Degradation A375.10 BRAF 2 hours Emax: ** (<90% and >50%)

## CCN(C)S(=O)(=O)Nc1ccc(F)c(Oc2ccc3ncn([C@@H]4CCC5(CCN(C6CCC(c7cc8c(cc7F)c(N7CCC(=O)NC7=O)nn8C)CC6)CC5)C4)c(=O)c3c2)c1C#N (single isomer, unassigned) [Compound 32]
A375-NRAS^Q61K cells
  GI50: 1 to 10 µM
  CTGlo A375.11 96 hours Emax: *** (<=50%)
BRAF V600E
  HiBiT-Degradation A375.10 BRAF 2 hours Emax: ** (<90% and >50%)
BRAF V600E; [1]
  DC50: < 1 µM
BRAF V600E; [2]
  DC50: < 1 µM

## CCN(C)S(=O)(=O)Nc1ccc(F)c(Oc2ccc3ncn([C@H]4COC5(CCN(C6CCC(c7cc8c(cc7F)c(N7CCC(=O)NC7=O)nn8C)CC6O)CC5)C4)c(=O)c3c2)c1C#N (single isomer, unassigned) [Compound 45]
A375-NRAS^Q61K cells
  GI50: < 1 µM
  CTGlo A375.11 96 hours Emax: *** (<=50%)
BRAF V600E; [1]
  DC50: < 1 µM
BRAF V600E; [2]
  DC50: < 1 µM
BRAF V600E; [3]
  HiBiT-Degradation A375.10 BRAF 2 hours Emax: *** (<=50%)
BRAF V600E; A375.10 cells, BRAF V600E, 6 hours, inflection point, read-out: HiBiT-Degradation A375.10 BRAF 6 hours IP
  DC50: < 1 µM
BRAF V600E; A375.10 cells, BRAF V600E, 6 hours, read-out: HiBiT-Degradation A375.10 BRAF 6 hours DC50
  DC50: < 1 µM
BRAF V600E; A375.10 cells, BRAF V600E, 6 hours, residual protein remaining
  HiBiT-Degradation A375.10 BRAF 6 hours Emax: *** (<=50%)
BRAF V600E; A375.10 cells, HiBiT, BRAF V600E, 24 hours
  HiBiT-Degradation A375.10 BRAF 24 hours Emax: *** (<=50%)
BRAF V600E; A375.10 cells, HiBiT, BRAF V600E, 24 hours, read-out: HiBiT-Degradation A375.10 BRAF 24 hours DC50
  DC50: < 1 µM
BRAF V600E; A375.10 cells, HiBiT, BRAF V600E, 24 hours, read-out: HiBiT-Degradation A375.10 BRAF 24 hours IP
  DC50: < 1 µM
